The target in assay [1] is T1, human SCD1 (Homo sapiens, UniProt O00767).
T1 construct: expressed in transfected cells; host or cells: yeast strain with OLE1 deleted, plasmid-borne human SCD1 (selected in SD-Ura)
T1 sequence (O00767 1-359): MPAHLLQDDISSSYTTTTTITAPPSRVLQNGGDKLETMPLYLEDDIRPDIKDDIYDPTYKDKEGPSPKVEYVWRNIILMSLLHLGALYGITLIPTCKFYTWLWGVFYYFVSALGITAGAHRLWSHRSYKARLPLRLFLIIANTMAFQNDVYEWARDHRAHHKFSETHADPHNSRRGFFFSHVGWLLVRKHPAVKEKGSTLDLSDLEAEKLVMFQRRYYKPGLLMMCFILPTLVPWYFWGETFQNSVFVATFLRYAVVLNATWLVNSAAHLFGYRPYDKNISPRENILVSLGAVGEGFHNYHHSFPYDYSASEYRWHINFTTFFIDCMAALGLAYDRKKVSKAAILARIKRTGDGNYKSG
The assay is described as follows: Growth inhibition of yeast strain expressing human SCD1 as sole desaturase (OLE1 deleted), OD600 readout. The format is cell-based.

The target in assay [2] is T2, human SCD5 (Homo sapiens, UniProt Q86SK9).
T2 construct: expressed in transfected cells; host or cells: yeast strain with OLE1 deleted, plasmid-borne human SCD5 (selected in SD-Ura)
T2 sequence (Q86SK9 1-330): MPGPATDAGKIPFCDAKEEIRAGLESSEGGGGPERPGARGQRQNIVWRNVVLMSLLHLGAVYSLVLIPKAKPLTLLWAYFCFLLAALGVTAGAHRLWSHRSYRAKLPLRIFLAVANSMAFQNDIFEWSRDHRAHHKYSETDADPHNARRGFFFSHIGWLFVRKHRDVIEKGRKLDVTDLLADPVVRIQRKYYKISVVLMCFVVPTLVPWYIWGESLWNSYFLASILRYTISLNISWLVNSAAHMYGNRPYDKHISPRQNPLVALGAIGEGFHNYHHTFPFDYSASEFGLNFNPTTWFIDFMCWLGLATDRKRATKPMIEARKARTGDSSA
The assay is described as follows: Growth inhibition of yeast strain expressing human SCD5 as sole desaturase (OLE1 deleted), OD600 readout. It is filed as cell-based.

[3] abbreviates: yeast strain expressing human SCD1 as sole desaturase, growth (OD600) after 40 h at 30° C., read-out: SCD1 IC50.
The mark [4] stands for this setting: yeast strain expressing human SCD5 as sole desaturase, growth (OD600) after 40 h at 30° C., read-out: SCD5 IC50.

Molecules are shown by their SMILES. Read-outs that look alike come from different tables or passages of the source. Where only a bound is given, the exact number is not on record here.

The term IC50 denotes the concentration that inhibits the measured activity by half. Turning to `Cn1nc(C(=O)Nc2ncc(Cc3cccc(Cl)c3)s2)ccc1=O` [Compound 236, N-(5-(3-chlorobenzyl)thiazol-2-yl)-1-methyl-6-oxo-1,6-dihydropyridazine-3-carboxamide], the IC50 in assay [1] (setting [3]) and in assay [2] (setting [4]) was 10 nM throughout.
For `O=C(Nc1ccc(Cc2cccc(F)c2)nn1)c1ccc2nccn2n1` [Compound 238], the results for the IC50 in assay [1] (setting [3]) and in assay [2] (setting [4]) were 4060 nM and 3960 nM, respectively.
Taken in the same sequence, the figures for `Cn1nc(C(=O)Nc2ccc(COc3ccc(Cl)cc3)cn2)ccc1=O` [Compound 670] were above 45000 nM and 1800 nM.
Taken in the same sequence, the figures for `O=C(Nc1ccc(Cc2cccc(F)c2)cn1)c1cncc(CO)c1` [Compound 481] were 120 nM and 27 nM.
On to `Cn1nccc(C(=O)Nc2ccc(Cc3cccc(F)c3)cn2)c1=O` [Compound 546], for which the IC50 in assay [1] (setting [3]) came out at 320 nM; in assay [2] (setting [4]) it was 27 nM.
Taken in the same sequence, the figures for `Cn1ccc(C(=O)Nc2ccc(Cc3cccc(F)c3)cn2)nc1=O` [Compound 335] were 15400 nM and 690 nM.
Turning to `Cn1cc(C(=O)Nc2ccc(Cc3cc(F)c(F)c(F)c3)nn2)ccc1=O` [Compound 267], the IC50 in assay [1] (setting [3]) is above 45000 nM; in assay [2] (setting [4]) it was 10600 nM.
For `CN1N=C(C(=O)Nc2ncc(Cc3cccc(F)c3)o2)CCC1=O` [Compound 399] the same measures were above 45000 nM and above 45000 nM.
For the compound `CN1N=C(C(=O)Nc2ncc(Cc3cccnc3)s2)CCC1=O` [Compound 398], the IC50 in assay [1] (setting [3]) and in assay [2] (setting [4]) was above 45000 nM each time.
Turning to `CN1N=C(C(=O)Nc2ccc(OCc3cc(F)cc(C#N)c3)cn2)CCC1=O` [Compound 270], the results for the IC50 in assay [1] (setting [3]) and in assay [2] (setting [4]) were above 45000 nM and 6880 nM, respectively.
Turning to `Cn1ncc2cc(-c3ccc(Cc4cccc(F)c4)cn3)ccc21` [Compound 153, 5-(5-(3-fluorobenzyl)pyridin-2-yl)-1-methyl-1H-indazole], the figures for the IC50 in assay [1] (setting [3]) and in assay [2] (setting [4]) were 5300 nM and 7600 nM, respectively.
Turning to `Cn1nc(C(=O)Nc2ccc(Cc3cccc(F)c3)cn2)cc1O` [Compound 106, N-(5-(3-fluorobenzyl)pyridin-2-yl)-5-hydroxy-1-methyl-1H-pyrazole-3-carboxamide], the half-inhibitory concentration (IC50) in assay [1] (setting [3]) is above 45000 nM; in assay [2] (setting [4]), 1240 nM.
Turning to `Cn1cc(C(=O)Nc2ccc(COc3ccc(F)cc3)cn2)ccc1=O` [Compound 452], the IC50 in assay [1] (setting [3]) and in assay [2] (setting [4]) was above 45000 nM throughout.
For the compound `Cn1cc(C(=O)Nc2ccc(Cc3cc(F)cc(Cl)c3)cn2)n(C)c1=O` [Compound 668], the IC50 in assay [1] (setting [3]) and in assay [2] (setting [4]) was 10 nM throughout.
Turning to `Cc1nccc(C(=O)Nc2ccc(Cc3cc(F)cc(F)c3)cn2)n1` [Compound 242], the IC50 in assay [1] (setting [3]) was 50 nM; in assay [2] (setting [4]), 10 nM.
Taken in the same sequence, the figures for `Cc1ccc(Cc2ccc(NC(=O)c3ccc(=O)n(C)c3)nc2)cn1` [Compound 449] were above 45000 nM and above 45000 nM.
For the compound `CCN1N=C(C(=O)Nc2ncc(Cc3cccc(F)c3)s2)CCC1=O` [Compound 414], the 50% inhibitory concentration (IC50) is 25000 nM in assay [1] (setting [3]) and above 45000 nM in assay [2] (setting [4]).
For `Cn1nc(C(=O)Nc2ccc(OCc3cccc(Cl)c3)cn2)ccc1=O` [Compound 171, N-(5-(3-chlorobenzyloxy)pyridin-2-yl)-1-methyl-6-oxo-1,6-dihydropyridazine-3-carboxamide] the same measures were above 45000 nM and 860 nM.
Take `Cn1cc(C(=O)Nc2ccc(CC3CCCCC3)cn2)ccc1=O` [Compound 65, N-(5-(cyclohexylmethyl)pyridin-2-yl)-1-methyl-6-oxo-1,6-dihydropyridine-3-carboxamide]: the IC50 in assay [1] (SCD1 IC50) is 1210 nM; in assay [2] (SCD5 IC50), 140 nM.
Turning to `CN1N=C(C(=O)Nc2ccc(Cc3cc(F)cc(Cl)c3)cn2)CCC1=O` [Example 28, N-(5-(3-chloro-5-fluorobenzyl)pyridin-2-yl)-1-methyl-6-oxo-1,4,5,6-tetrahydropyridazine-3-carboxamide], the IC50 in assay [1] (setting [3]) is 1950 nM; in assay [2] (setting [4]) it was 20 nM.
Taken in the same sequence, the figures for `CN1N=C(C(=O)Nc2ccc(Cc3cccc(CO)c3)cn2)CCC1=O` [Compound 436] were 6240 nM and above 45000 nM.
As to `Cc1ccc(Cc2ccc(NC(=O)C3=NN(C)C(=O)CC3)nc2)cn1` [Compound 435], the IC50 in assay [1] (setting [3]) and in assay [2] (setting [4]) was above 45000 nM each time.
Regarding `O=C(Nc1ccc(Cc2cccc(Cl)c2)cn1)N1CC2(COC2)C1` [Compound 250], the IC50 in assay [1] (setting [3]) is above 45000 nM; in assay [2] (setting [4]), 9750 nM.
As for `Cn1nc(C(=O)Nc2cc(Cc3ccc(Cl)cc3)ccn2)ccc1=O` [Compound 338], the IC50 in assay [1] (setting [3]) was above 45000 nM; in assay [2] (setting [4]), 16300 nM.
As to `Cc1cc(C(=O)Nc2ccc(Cc3ccc(F)c(F)c3)cn2)cn(C)c1=O` [Compound 679], the IC50 in assay [1] (setting [3]) stood at 570 nM; in assay [2] (setting [4]), 10 nM.
For `Cn1cc(C(=O)Nc2ccc(Nc3cccc(F)c3)cn2)ccc1=O` [Compound 349] the same measures were above 45000 nM and 32300 nM.
Regarding `COc1nccc(C(=O)Nc2ccc(Cc3ccc(F)c(F)c3)cn2)n1` [Compound 486], the results for the IC50 in assay [1] (setting [3]) and in assay [2] (setting [4]) were 7800 nM and 110 nM, respectively.
Taken in the same sequence, the figures for `CCn1cc(C(=O)Nc2ccc(Cc3cccc(Cl)c3)cn2)ccc1=O` [Compound 84, N-(5-(3-chlorobenzyl)pyridin-2-yl)-1-ethyl-6-oxo-1,6-dihydropyridine-3-carboxamide] were 6660 nM and 370 nM.
As to `Cc1cc(C(=O)Nc2ccc(Cc3cccc(F)c3)cn2)no1` [Compound 107, N-(5-(3-fluorobenzyl)pyridin-2-yl)-5-methylisoxazole-3-carboxamide], the results for the half-inhibitory concentration (IC50) in assay [1] (setting [3]) and in assay [2] (setting [4]) were above 45000 nM and 1060 nM, respectively.
For `CCn1cccc(C(=O)Nc2ccc(Cc3cccc(F)c3)cn2)c1=O` [Compound 332] the same measures were 1680 nM and 480 nM.
Regarding `CN1N=C(C(=O)Nc2ccc(Cc3ccc(F)c(Cl)c3)nn2)CCC1=O` [Compound 179, N-(6-(3-chloro-4-fluorobenzyl)pyridazin-3-yl)-1-methyl-6-oxo-1,4,5,6-tetrahydropyridazine-3-carboxamide], the figures for the IC50 in assay [1] (setting [3]) and in assay [2] (setting [4]) were above 45000 nM and 1030 nM, respectively.
Consider `O=C(Nc1ccc(COc2ccc(F)c(Cl)c2)cn1)c1ccc(CO)nc1` [Compound 293], for which the concentration for half-maximal inhibition (IC50) turned out to be 80 nM in assay [1] (setting [3]) and 40 nM in assay [2] (setting [4]).
For `CN1N=C(C(=O)Nc2ncc(Cc3cccc(F)c3)nn2)CCC1=O` [Compound 245] the same measures were above 45000 nM and above 45000 nM.
For `COc1ccc(Cn2c(C(=O)Nc3ccc(Cc4cccc(F)c4)cn3)cc(=O)n2C)cc1` [Compound 455] the same measures were above 45000 nM and above 45000 nM.
Taken in the same sequence, the figures for `CN1N=C(C(=O)Nc2ccc(Oc3cccc(Cl)c3)cn2)CCC1=O` [Compound 157, N-(5-(3-chlorophenoxy)pyridin-2-yl)-1-methyl-6-oxo-1,4,5,6-tetrahydropyridazine-3-carboxamide] were above 45000 nM and 6650 nM.
On to `Cn1cc(C(=O)Nc2ccc(COc3cccc(Cl)c3)cn2)ccc1=O` [Compound 172, N-(5-((3-chlorophenoxy)methyl)pyridin-2-yl)-1-methyl-6-oxo-1,6-dihydropyridine-3-carboxamide], for which the IC50 in assay [1] (setting [3]) was 2290 nM; in assay [2] (setting [4]) it was 370 nM.

(Values after patent publication US20230078764A1 (Yumanity Therapeutics, Inc., priority 2019, published 2023).)
